US7662782B2, “Melanocortin 1 receptor selective compounds” (Action Pharma A/S, priority 1998, dated 2010)
Values belong to the compound of their own block, whether it stands above or below them. Square brackets hold non-standard residues; d marks the D form. Ends that are not written are not given here. Peptide text beside a SMILES is read from it.

Experiments:
[1] = tested on: mouse B16 melanoma cells; experiment: Stimulation of cAMP-formation in mouse B16 melanoma cells; assay type: cell-based; details: FIG. 3; both peptides at similar potencies and efficacies
Description: B16 mouse melanoma cells (B16-F1; CRL-6323, American Type Culture Collection, 12301 Parklawn Drive, Rockville, Md., 20852), were cultured in Dulbecco's modified Eagle medium (DMEM; Gibco BRA Gaithersburg, USA, cat no. 041-01966H) supplemented with 10% heat-inactivated fetal bovine serum, 100 IU penicillin/mL and 100 μg streptomycin/mL at 37° C. in a humidified atmosphere of 95% air and 5% CO2. Cells grown in monolayers were detached from 60-80% confluent adherent cultures using Hank's balanced salts containing 0.5 mM EDTA and collected by low speed centrifugation (700×g).
The cells were incubated for 30 min at 37° C. in DMEM containing 0.5 mM of the phosphodiesterase inhibitor 3-isobutyl-1-methyl-xanthine (IBMX). 20 μL aliquots of appropriate dilutions of test compounds in growth medium were prepared in 96 well microtitre plates The plates were then placed in a water bath at 37° C. and about 1.5×10^5 cells in 180 μL were quickly added to each well to obtain immediate mixing. […]
After completion of the incubations the solutions were rapidly filtered onto GF-B glassfibre filters (Whatman), followed by rapid washing of filters with 2 ml ice-cold washing buffer (50 mM Tris-Cl, pH 7.4). […] Radioactivity was counted using a β-counter. Cell experiments were determined in quadruplicates and standard curves in duplicates.

[2] = tested on: mouse RAW 264.7 macrophage cells; experiment: Inhibition of nitric oxide production in LPS/interferon gamma stimulated RAW 264.7 cells; assay type: cell-based; details: FIG. 6; 100 ng/mL LPS + 5 units/mL interferon gamma, 16 h; potencies and efficacies similar to α-MSH
Description: RAW 264.7 cells (TIB-71), obtained from American Type Culture Collection, 12301 Parklawn Drive, Rockville, Md., 20852, USA, and cultured in Dulbecco's modified Eagle medium (Gibco, BRL) supplemented with 10% heat-inactivated fetal bovine serum, 100 IU penicillin/ml and 100 μg streptomycin/ml at 37° C. in a humidified atmosphere of 95% air and 5% CO2. Cells grown in monolayers were detached from the culture flasks and collected by low speed centrifugation (700×g). […]
Nitric oxide was measured by monitoring the nitrite production essentially using the method of Wishnok et al. (Methods in Enzymology, 1996, 268, 130-151). In brief 50 μL of culture medium was mixed with 50 μL Griess reagent (i.e. a 1:1 mixture of 0.1% N-naphthylethylenediamine dihydrochloride and 1% sulfanilamide in 5% (v/v) phosphoric acid) and after 10 min the absorption was measured at 540 nm. The nitrite concentrations were calculated from a standard curve constructed, by instead of culture medium, adding 50 μL of between 3 to 100 μM of NaNO2 to the assays.

[3] = target: T1, human MC1-receptor (Homo sapiens, UniProt Q01726); experiment: Stimulation of cAMP formation in B16G4F cells stably expressing human MC1-receptors; assay type: cell-based; set-up: expressed in transfected cells; details: for Fold stimulation of cAMP: vs untreated control cells, mean ± SD of 3 experiments
Description: Human MC1-receptors had been cloned earlier into pZeoSV (Invitrogen) (Szardenings et al., 1997). The resulting vectors were used for transformation of the amelanotic mouse melanoma cell line B16G4F that lacks the mouse MC1-receptors (Solca et al., 1993) using liposomes (Campbell, 1995) as described previously (Schiöth et al., 1997b). Cells were cultivated in Dulbecco's modified Eagle's medium with 10% fetal calf serum at 7% CO2 for 24 hours and seeded on large plates in the same medium containing 300 μg/ml Zeocin. The medium was exchanged every 4-5 days until cell foci appeared. Single foci were isolated and grown under antibiotic selection.
For cAMP measurements the cells were detached from 60-80% confluent adherent cultures using Hank's balanced salts containing 0.5 mM EDTA and incubated for 30-60 min at 37° C. in ordinary growth medium containing 0.5 mM of the phosphodiesterase inhibitor 3-isobutyl-1-methyl-xanthine (IBMX). 20 μl aliquots of appropriate dilutions of test compounds in growth medium were prepared in 96 well microtitre plates and placed in a water bath at 37° C. For the stimulation about 1.5×10^5 cells in 180 μl were quickly added to each well to obtain immediate mixing. After 20 min 20 μl of 4.4 M perchloric acid were added, mixed, neutralized after a few minutes by addition of 20 μl base (5 M KOH, 1 M Tris) and centrifuged.
20 μl of acid treated supernatant obtained above were mixed with 50 μl buffer (100 mM Tris-Cl, 250 mM NaCl, 10 mM EDTA, 0.1% mercaptoethanol, 0.5 mM IBMX, pH=7.4) containing 0.01 μCi [^3H]cAMP (Amersham, 1.04 TBq/mmol, 1 μCi/μl, product no.: TRK304). 200 μl of the same buffer containing a 1:16 diluted porcine adrenal gland bark extract (prepared as described by Nordstedt and Fredholm, 1990) were added and the microtitre plates were incubated for at least 2 hours at 4° C. A standard curve was prepared in the same manner with dilutions of cAMP covering the range 2 μM -0.5 nM.
After completion of incubation the solutions were filtered over GF-B glassfibre filters (Whatman) and washed briefly with ca. 2 ml ice-cold washing buffer (50 mM Tris-Cl, pH=7.4). Radioactivity on the filters was measured after-addition of scintillation liquid. Stimulation experiments were determined in quadruplicates and standard curves in duplicates.

[4] = tested on: BALB/C mice; experiment: DNFB contact hypersensitivity in BALB/C mice (paw oedema, blood cell counts); assay type: in vivo, mouse; details: for inhibition of paw oedema: daily, vs DNFB animals not given MS05
Description: Marked positive treatment effects were found upon administration of MS05 to BALB/C mice. Animals were sensitized by injection of 2,4-dinitrofluorobenzene (DNFB). First 30 μL of 0.5% DNFB was administered to the shaved abdomen of the mice and after 4 days 10 μL of 0.3% DNFB was challenged to one paw, another paw being unchallenged and serving as a control. MS05 was administered, using a solution of MS05 in 0.9% saline, intraperitonally two hours before sensitization, and then the same dose was given intra-peritonally for four consecutive days, each dose of MS05 amounting to 0.05, 0.25, 0.37, 0.5 and 0.75 mg/kg. […] Therefore the compound of the invention is in a further sense immunomodulatory.

[5] = target: T2, human MC5-receptor (Homo sapiens, UniProt P33032); experiment: Competition for [125I]NDP-MSH binding to recombinant human MC5-receptor in COS cells; details: for Ki: [125I]NDP-MSH competition, transfected COS cells
T2 construct: expressed in transfected cells; host or cells: COS (COS-1) cells, transient, 48 h
Description: (§1) Expression of receptor clones. Human MC1- and MC5-receptor DNAs (Chhajlani and Wikberg 1992; Chhajlani et al., 1993), cloned into the expression vector pRc/CMV (InVitrogen Corp., USA), and human MC3- and human MC4-receptor DNAs (Gantz et al., 1993a & b), cloned into the expression vector pCMV/neo, were used. COS cells were grown and transfected with receptor clones as described (Schiöbth et al. 1995, 1996b). After transfection cells were cultivated for 48 h, detached from the Petri dishes, and used for radioligand binding as described (Schiöth et al. 1995, 1996b).
(§2) Binding studies. […] The competition data were analyzed by fitting it to the logistic function using non-linear regression analysis. The Ki-values were then calculated from the thus obtained IC50-values by using the Cheng and Prusoff equation, essentially as described by Schiöth et al. 1995, 1996b.

[6] = target: T3, human MC4-receptor (Homo sapiens, UniProt P32245); experiment: Competition for [125I]NDP-MSH binding to recombinant human MC4-receptor in COS cells; details: for Ki: [125I]NDP-MSH competition, transfected COS cells
T3 construct: expressed in transfected cells; host or cells: COS (COS-1) cells, transient, 48 h
Description: as §1, §2

[7] = target: T1, human MC1-receptor; experiment: Competition for [125I]NDP-MSH binding to recombinant human MC1-receptor in COS cells; set-up: expressed in transfected cells; host or cells: COS (COS-1) cells, transient, 48 h; details: [125I]NDP-MSH competition, transfected COS cells
Description: as §1, §2

[8] = target: T4, human MC3-receptor (Homo sapiens, UniProt P41968); experiment: Competition for [125I]NDP-MSH binding to recombinant human MC3-receptor in COS cells; details: for Ki: [125I]NDP-MSH competition, transfected COS cells
T4 construct: expressed in transfected cells; host or cells: COS (COS-1) cells, transient, 48 h
Description: as §1, §2

[9] = tested on: human microvascular endothelial cells (HMEC-1 cells); experiment: TNF α induced adhesion molecule expression in HMEC-1 cells; assay type: cell-based; details: TNF α 10 ng/mL
Description: In further tests the MS05 or MS09 was administered to human microvascular endothelial cells (HMEC-1 cells; Department of Health & Human Services, Centres for Disease Control and Prevention, Atlanta, Ga. 30333, USA) in vitro. […] In this context by ICAM-1 is intended intercellular adhesion molecule type 1, by VCAM is intended vascular adhesion molecule, and by E-Selectin is intended endothelial selectin (Sluiter et al, J. Cardiovasc. Pharmacol. 1993, 22 Suppl 4: S37-44, Elangbam et al., Vet. Pathol. 1997 Jan. 34(1): 61-73).

[10] = tested on: mouse RAW 264.7 macrophage cells; experiment: Stimulation of cAMP-formation in mouse RAW 264.7 macrophage cells; assay type: cell-based; details: FIG. 5; both peptides at similar potencies and efficacies
Description: RAW 264.7 cells were grown as described in Example 6. cAMP was determined essentially as described in Example 5.

[11] = intraperitoneal, best effect at 0.5 mg/kg daily

T1 sequence (Q01726 whole entry): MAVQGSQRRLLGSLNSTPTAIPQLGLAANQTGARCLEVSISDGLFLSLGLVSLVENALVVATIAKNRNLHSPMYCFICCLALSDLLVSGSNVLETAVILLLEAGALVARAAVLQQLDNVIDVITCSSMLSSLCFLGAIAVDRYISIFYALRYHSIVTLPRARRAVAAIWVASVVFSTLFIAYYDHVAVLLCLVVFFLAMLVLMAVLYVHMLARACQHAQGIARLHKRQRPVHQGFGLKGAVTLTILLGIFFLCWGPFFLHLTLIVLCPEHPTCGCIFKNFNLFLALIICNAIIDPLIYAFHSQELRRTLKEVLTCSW
T2 sequence (P33032 whole entry): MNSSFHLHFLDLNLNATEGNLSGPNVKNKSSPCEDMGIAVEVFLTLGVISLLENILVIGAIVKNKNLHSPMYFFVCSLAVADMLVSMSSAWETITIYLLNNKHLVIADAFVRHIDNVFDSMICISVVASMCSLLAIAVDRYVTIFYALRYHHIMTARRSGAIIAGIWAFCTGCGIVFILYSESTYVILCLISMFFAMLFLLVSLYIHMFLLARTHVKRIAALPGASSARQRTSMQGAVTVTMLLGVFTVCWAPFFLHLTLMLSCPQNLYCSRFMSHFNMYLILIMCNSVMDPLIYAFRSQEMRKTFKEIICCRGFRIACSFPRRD
T3 sequence (P32245 whole entry): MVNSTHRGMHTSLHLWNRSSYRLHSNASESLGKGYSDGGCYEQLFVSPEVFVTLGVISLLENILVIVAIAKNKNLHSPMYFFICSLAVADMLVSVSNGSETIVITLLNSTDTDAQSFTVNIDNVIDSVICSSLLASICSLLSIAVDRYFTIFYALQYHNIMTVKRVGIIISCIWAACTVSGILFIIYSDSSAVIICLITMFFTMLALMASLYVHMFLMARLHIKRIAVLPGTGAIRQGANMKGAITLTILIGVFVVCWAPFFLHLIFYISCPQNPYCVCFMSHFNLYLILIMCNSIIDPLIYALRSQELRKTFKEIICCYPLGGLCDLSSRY
T4 sequence (P41968 whole entry): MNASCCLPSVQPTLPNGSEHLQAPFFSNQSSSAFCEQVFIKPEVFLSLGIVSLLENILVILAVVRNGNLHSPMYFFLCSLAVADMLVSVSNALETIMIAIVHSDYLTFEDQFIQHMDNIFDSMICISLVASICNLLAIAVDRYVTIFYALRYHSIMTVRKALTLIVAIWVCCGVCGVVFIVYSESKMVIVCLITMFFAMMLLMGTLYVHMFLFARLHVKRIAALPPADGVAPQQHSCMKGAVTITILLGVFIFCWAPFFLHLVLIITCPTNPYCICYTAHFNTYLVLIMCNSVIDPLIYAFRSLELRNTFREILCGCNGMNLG

% of 10 nM α-MSH (cAMP stimulation) ([3]; 10 nM compound): 69% | Fold stimulation of cAMP ([3]; 10 nM compound): 4.6 ± 0.3 fold | Fold stimulation of cAMP ([3]; 1 μM compound): 6.7 ± 0.3 fold | Ki [5]: > 50000 nM | fold lower affinity for the MC5 receptor than for the MC1-receptor ([5]; ratio of Ki values): more than 65000 fold | Ki [6]: > 50000 nM | fold lower affinity for the MC4 receptor than for the MC1-receptor ([6]; ratio of Ki values): more than 65000 fold | Ki [7]: 0.76 nM | Ki [8]: 1360 nM | fold lower affinity for the MC3 receptor than for the MC1-receptor ([8]; ratio of Ki values): 1800 fold
Compound: SSIISHFRWGKPV-NH2 [MS05, L-seryl-L-seryl-L-Isoleucyl-L-isoleucyl-L-seryl -L-histidyl-L-phenylalanyl-L-arginyl-L-tryptophanyl-glycyl-L-lysyl-L-prolyl-L-valinamide]
effect on cAMP levels in mouse B16 melanoma cells [1]: marked increase in cAMP | inhibition of NO-production [2]: strong dose dependent inhibition | inhibition of paw oedema ([4]; 0.05 mg/kg intraperitoneal): 3% | inhibition of paw oedema ([4]; 0.25 mg/kg intraperitoneal): 5% | inhibition of paw oedema ([4]; 0.37 mg/kg intraperitoneal): 12% | inhibition of paw oedema ([4]; 0.5 mg/kg intraperitoneal): 39% | inhibition of paw oedema ([4]; 0.75 mg/kg intraperitoneal): 10% | DNFB induced increase in blood platelet counts ([4]; intraperitoneal): returned towards the normal | DNFB induced increase in count of lymphocytes/monocytes in the blood ([4]; intraperitoneal): essentially returned to normal levels | DNFB induced increase in granulocyte counts of the blood [4, 11]: essentially normalized | DNFB induced increase in total white cell blood counts [4, 11]: essentially normalized | TNF α upregulated expression of mRNA for ICAM-1, VCAM and E-Selectin [9]: inhibition of the upregulated expression of mRNA | TNF α upregulation of the ICAM-1, VCAM and E-Selectin proteins [9]: inhibition of the upregulation | effect on cAMP levels in mouse RAW 264.7 cells [10]: marked increase in cAMP

% of 10 nM α-MSH (cAMP stimulation) ([3]; 10 nM compound): 89% | Ki [5]: 120 nM | Ki [6]: 40 nM | Ki [7]: 0.2 nM | Ki [8]: 7 nM
Compound: CC[C@H](C)[C@H](NC(=O)[C@H](CO)NC(=O)[C@@H](N)CO)C(=O)N[C@H](C(=O)N[C@@H](CO)C(=O)N[C@@H](Cc1c[nH]cn1)C(=O)N[C@H](Cc1ccccc1)C(=O)N[C@@H](CCCNC(=N)N)C(=O)N[C@@H](Cc1c[nH]c2ccccc12)C(=O)NCC(=O)N[C@@H](CCCCN)C(=O)N1CCC[C@H]1C(=O)N[C@H](C(N)=O)C(C)C)[C@@H](C)CC [MS09, Ser-Ser-Ile-Ile-Ser-His-dPhe-Arg-Trp-Gly-Lys-Pro-Val-NH2] (H-SSIISH[dF]RWGKPV-NH2)
